Reference: patent publication US20140057895A1, “INDAZOLE- AND PYRROLOPYRIDINE-DERIVATIVE AND PHARMACEUTICAL USE THEREOF” (priority 2011, published 2014)

How the values were obtained:
[1] = target: T1, Human 5-HT4 receptor (5-HT4b) (Homo sapiens, UniProt Q13639); assay: Test Example 3: Human 5-HT4 receptor binding assay, membranes of CHO-K1 cells stably expressing 5-HT4b receptors (Table 99); conditions: mean value of each group
T1 construct: expressed in transfected cells; membrane preparation
Outline: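 Radioligand displacement: [3H]-GR113808 (0.1 nM) bound to CHO-K1 5-HT4b membranes for 30 min at 37 °C in Hepes buffer (50 mM, pH 7.4). Specific binding is total minus that with 30 μM serotonin; filter-bound radioactivity counted, IC50 derived from percent inhibition.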

[2] = target: T2, human 5-HT4b receptor (Homo sapiens, UniProt Q13639); assay: Test Example 4: Serotonin 4 (5-HT4) receptor agonist activity assay, cAMP HTRF in CHO cells (Table 100); format: cell-based; conditions: mean value; for Emax: CHO, 0.25 h, intrinsic activity, maximal activity of 5-HT defined as 100%, read-out: IA (%); for EC50: concentration showing 50% of IA
T2 construct: expressed in transfected cells; host or cells: CHO cells (G418 selection)
Outline: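 Read-out is HTRF cAMP (time-resolved fluorescence 620/665 nm after 1 h RT with cAMP-cryptate and cAMP-d2), from recombinant CHO cells bearing human 5-HT4b treated with compound 15 min at 31° C. in Hanks/HEPES buffer pH 7.4. IA (%) scaled to peak 5-HT effect over 10^−11–10^−7 M; EC50 is concentration giving half that IA.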

T2 sequence (Q13639 whole entry): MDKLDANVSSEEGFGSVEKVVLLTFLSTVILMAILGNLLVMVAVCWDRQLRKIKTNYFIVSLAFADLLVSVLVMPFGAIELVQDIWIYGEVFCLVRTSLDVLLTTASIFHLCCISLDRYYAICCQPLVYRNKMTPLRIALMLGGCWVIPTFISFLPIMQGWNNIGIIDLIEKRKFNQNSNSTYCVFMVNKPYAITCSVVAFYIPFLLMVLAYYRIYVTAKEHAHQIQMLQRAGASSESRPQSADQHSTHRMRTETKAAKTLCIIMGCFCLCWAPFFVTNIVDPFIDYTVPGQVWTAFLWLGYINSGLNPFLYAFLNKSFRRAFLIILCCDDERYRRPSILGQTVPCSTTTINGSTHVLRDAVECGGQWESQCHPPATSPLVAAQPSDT
T1 sequence (Q13639 whole entry): as above

Row | SMILES | IC50 [1] [nM] | Emax [2] [%] | EC50 [2] [nM]
1 | CC(=O)N1CCC(C)(N2CCC(c3nc(-n4nc(C(C)C)c5cccc(F)c54)no3)CC2)CC1 [Example 487, 1-(4-{3-[7-fluoro-3-(propan-2-yl)-1H-indazol-1-yl]-1,2,4-oxadiazol-5-yl}-4′-methyl-1,4′-bipiperidin-1′-yl)ethanone] | < 20 | 70 | 3.2
2 | CC(C)c1nn(-c2noc(C3CCN(C4(C)CCN(C(=O)CO)CC4)CC3)n2)c2c(F)cccc12 [Example 537, 1-(4-{3-[7-fluoro-3-(propan-2-yl)-1H-indazol-1-yl]-1,2,4-oxadiazol-5-yl}-4′-methyl-1,4′-bipiperidin-1′-yl)-2-hydroxyethanone] | < 20 | 111 | 1.3
3 | CC(C)c1nn(-c2noc(C3CCN([C@H]4[C@@H]5CCC[C@H]4CN(C(=O)CO)C5)CC3)n2)c2c(F)cccc12 [Example 536, 1-[(9-syn)-9-(4-{3-[7-fluoro-3-(propan-2-yl)-1H-indazol-1-yl]-1,2,4-oxadiazol-5-yl}piperidin-1-yl)-3-azabicyclo[3.3.1]non-3-yl]-2-hydroxyethanone] | < 20 | 100 | 3.7
4 | CC(C)c1nn(-c2noc(C[C@H]3CCN(C[C@H]4CCCN4S(C)(=O)=O)C3)n2)c2c(F)cccc12 [Example 500, 7-fluoro-1-(5-{[(3R)-1-{[(2R)-1-(methylsulfonyl)pyrrolidin-2-yl]methyl}pyrrolidin-3-yl]methyl}-1,2,4-oxadiazol-3-yl)-3-(propan-2-yl)-1H-indazole] | < 20 | 90 | 14.4
5 | CC(C)c1nn(-c2noc(C3CCN(C4C5CCC4CN(C(=O)CO)C5)CC3)n2)c2c(F)cccc12 (stereo not drawn) [Example 534, 1-[(8-anti)-8-(4-(3-[7-fluoro-3-(propan-2-yl)-1H-indazol-1-yl]-1,2,4-oxadiazol-5-yl}piperidin-1-yl)-3-azabicyclo[3.2.1]oct-3-yl]-2-hydroxyethanone] | 42.4 | 104 | 5.7
6 | CC(C)c1nn(-c2noc(C[C@H]3CCN(C[C@@H]4CCCN4S(C)(=O)=O)C3)n2)c2c(F)cccc12 [Example 498, 7-fluoro-1-(5-{[(3R)-1-{[(2S)-1-(methylsulfonyl)pyrrolidin-2-yl]methyl}pyrrolidin-3-yl]methyl}-1,2,4-oxadiazol-3-yl)-3-(propan-2-yl)-1H-indazole] | < 20 | 36 | 3.4
7 | CCC(C)c1nn(-c2noc(C3CCN(C4CCN(C(=O)CO)CC4)CC3)n2)c2c(F)cccc12 (stereo not drawn) [Example 528, 1-(4-{3-[3-(butan-2-yl)-7-fluoro-1H-indazol-1-yl]-1,2,4-oxadiazol-5-yl}-1,4′-bipiperidin-1′-yl)-2-hydroxyethanone] | < 20 | 121 | 17.3
8 | CC(C)c1nn(-c2noc(C[C@@H]3CCN(C[C@@H]4CCN(C(=O)CO)C4)C3)n2)c2c(F)cccc12 [Example 549, 1-[(3S)-3-{[(3S)-3-({3-[7-fluoro-3-(propan-2-yl)-1H-indazol-1-yl]-1,2,4-oxadiazol-5-yl}methyl)pyrrolidin-1-yl]methyl}pyrrolidin-1-yl]-2-hydroxyethanone] | < 20 | 91 | 5.6
9 | CC(C)c1nn(-c2noc(C[C@@H]3CCN(C[C@@H]4CCN(S(C)(=O)=O)C4)C3)n2)c2c(F)cccc12 [Example 516, 7-fluoro-1-(5-{[(3S)-1-{[(3S)-1-(methylsulfonyl)pyrrolidin-3-yl]methyl}pyrrolidin-3-yl]methyl}-1,2,4-oxadiazol-3-yl)-3-(propan-2-yl)-1H-indazole] | < 20 | 75 | 7.2
10 | CC(=O)N1CCC(N2CCC(F)(c3nc(-n4nc(C(C)C)c5cccc(F)c54)no3)CC2)CC1 [Example 561, 1-(4-fluoro-4-{3-[7-fluoro-3-(propan-2-yl)-1H-indazol-1-yl]-1,2,4-oxadiazol-5-yl}-1,4′-bipiperidin-1′-yl)ethanone] | 33.3 | 109 | 8.9

Other lines, results leading:

Row | IC50 [1] [nM] | Emax [2] [%] | EC50 [2] [nM] | SMILES
11 | < 20 | 60 | 5.5 | CC(C)c1nn(-c2noc(C[C@@H]3CCN(C4CCN(C(=O)CO)CC4)C3)n2)c2c(F)cccc12 [Example 545, 1-{4-[(3S)-3-({3-[7-fluoro-3-(propan-2-yl)-1H-indazol-1-yl]-1,2,4-oxadiazol-5-yl}methyl)pyrrolidin-1-yl]piperidin-1-yl}-2-hydroxyethanone]
12 | < 20 | 75 | 2.6 | CC(C)c1nn(-c2noc(C[C@H]3CCN(C4CCN(C(=O)CO)CC4)C3)n2)c2c(F)cccc12 [Example 539, 1-{4-[(3R)-3-({3-[7-fluoro-3-(propan-2-yl)-1H-indazol-1-yl]-1,2,4-oxadiazol-5-yl}methyl)pyrrolidin-1-yl]piperidin-1-yl}-2-hydroxyethanone]
13 | < 20 | 54 | 14.1 | CC(C)c1nn(-c2noc(C[C@@H]3CCN(C[C@H]4CCCN4C(=O)CO)C3)n2)c2c(F)cccc12 [Example 547, 1-[(2R)-2-{[(3S)-3-({3-[7-fluoro-3-(propan-2-yl)-1H-indazol-1-yl]-1,2,4-oxadiazol-5-yl}methyl)pyrrolidin-1-yl]methyl}pyrrolidin-1-yl]-2-hydroxyethanone]
14 | < 20 | 97 | 2.6 | CC(=O)N1CC[C@H](NC2CC(c3nc(-n4nc(C(C)C)c5cccc(F)c54)no3)C2)C1 (stereo partly drawn) [Example 591, 1-{(3S)-3-[(3-{3-[7-fluoro-3-(propan-2-yl)-1H-indazol-1-yl]-1,2,4-oxadiazol-5-yl}cyclobutyl)amino]pyrrolidin-1-yl}ethanone]
15 | < 20 | 98 | 5 | CC(=O)N1CC[C@@H](CN2CC[C@H](Cc3nc(-n4nc(C(C)C)c5cccc(F)c54)no3)C2)C1 [Example 503, 1-[(3S)-3-{[(3R)-3-({3-[7-fluoro-3-(propan-2-yl)-1H-indazol-1-yl]-1,2,4-oxadiazol-5-yl}methyl)pyrrolidin-1-yl]methyl}pyrrolidin-1-yl]ethanone]
16 | < 20 | 113 | 2.3 | COCCNC1CC(c2nc(-n3nc(C(C)C)c4cccc(F)c43)no2)C1 (stereo not drawn) [Example 605, 3-{3-[7-fluoro-3-(propan-2-yl)-1H-indazol-1-yl]-1,2,4-oxadiazol-5-yl}-N-(2-methoxyethyl)cyclobutanamine]
17 | 48.6 | 82 | 7.8 | CC(=O)N1CCC[C@@H]1CN1CC[C@H](Cc2nc(-n3nc(C(C)C)c4cccc(F)c43)no2)C1 [Example 499, 1-[(2R)-2-{[(3R)-3-({3-[7-fluoro-3-(propan-2-yl)-1H-indazol-1-yl]-1,2,4-oxadiazol-5-yl}methyl)pyrrolidin-1-yl]methyl}pyrrolidin-1-yl]ethanone]
18 | < 20 | 93 | 6.9 | CC(C)c1nn(-c2noc(C3CC(NC4CCOCC4)C3)n2)c2c(F)cccc12 (stereo not drawn) [Example 595, N-(3-{3-[7-fluoro-3-(propan-2-yl)-1H-indazol-1-yl]-1,2,4-oxadiazol-5-yl}cyclobutyl)tetrahydro-2H-pyran-4-amine]
